According to ChEMBL document CHEMBL3769365, “Discovery of the First Potent and Selective Inhibitors of Human dCTP Pyrophosphatase 1” (J Med Chem, 2016):
Values after ≈ are worked out from the molar mass of the structure shown.

What was measured:
dCTP pyrophosphatase 1 = target: T1, dCTP pyrophosphatase 1 (Homo sapiens, UniProt Q9H773); experiment: Inhibition of human recombinant full length dCTPase expressed in Escherichia coli BL21(DE3)pLysS using dCTP as substrate after 1 hr by HTS-adapted Malachite Green assay
T1 sequence (Q9H773 whole entry): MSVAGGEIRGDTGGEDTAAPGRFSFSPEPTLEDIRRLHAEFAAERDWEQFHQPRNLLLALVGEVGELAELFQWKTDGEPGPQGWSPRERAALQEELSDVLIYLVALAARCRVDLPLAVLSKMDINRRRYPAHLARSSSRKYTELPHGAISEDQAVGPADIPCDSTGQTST

[1] = Half life in mouse liver microsomes; format: ADME
Liver microsome = experiment: Half life in human liver microsomes; format: ADME
[2] = Metabolic stability of plasma (unknown origin) assessed as compound remaining after 4 hrs; format: ADME, cell-free; details: read-out: Stability
[3] = Mutagenicity in human HL60 cells assessed as caspase 3 cleavage by Western blot analysis; format: toxicity, cell-based; details: hl-60
[4] = Mutagenicity in human HL60 cells assessed as 53BP1 foci formation at 2.5 uM after 24 hrs by immunofluorescence staining-based Zeiss LSM-780 confocal microscopy; format: toxicity, cell-based; details: hl-60, 24 h
[5] = Photostability of compound at room temperature after 5 months by LC/MS analysis; format: physicochemical; details: 3652.5 h
[6] = Mutagenicity in human HL60 cells assessed as gammaH2AX foci formation at 2.5 uM after 24 hrs by immunofluorescence staining-based Zeiss LSM-780 confocal microscopy; format: toxicity, cell-based; details: hl-60, 24 h
[7] = Fraction unbound in plasma (unknown origin); format: ADME, cell-free
[8] = Mutagenicity in human HL60 cells assessed as Chk1 phosphorylation at S345 by Western blot analysis; format: toxicity, cell-based; details: hl-60
[9] = Aqueous solubility of the compound; format: physicochemical; details: buffer
[10] = Apparent permeability of the compound from apical to basolateral side; format: physicochemical
Cytochrome P450 2D6 = Cytochrome P450 2D6 (Homo sapiens, UniProt P10635); experiment: Inhibition of CYP2D6 (unknown origin) using bufuralol as substrate preincubated for 10 mins followed by NADPH addition by LC/MS/MS analysis; format: ADME
Cytochrome P450 2C9 = Cytochrome P450 2C9 (Homo sapiens, UniProt P11712); experiment: Inhibition of CYP2C9 (unknown origin) using diclofenac as substrate preincubated for 10 mins followed by NADPH addition by LC/MS/MS analysis; format: ADME
[11] = Efflux ratio of apparent permeability of the compound; format: ADME
Cytochrome P450 2C19 = Cytochrome P450 2C19 (Homo sapiens, UniProt P33261); experiment: Inhibition of CYP2C19 (unknown origin) using mephenytoin as substrate preincubated for 10 mins followed by NADPH addition by LC/MS/MS analysis; format: ADME
Cytochrome P450 1A2 = target: T2, Cytochrome P450 1A2 (Homo sapiens, UniProt P05177); experiment: Inhibition of CYP1A2 (unknown origin) using phenacetin as substrate preincubated for 10 mins followed by NADPH addition by LC/MS/MS analysis; format: ADME
T2 sequence (P05177 whole entry): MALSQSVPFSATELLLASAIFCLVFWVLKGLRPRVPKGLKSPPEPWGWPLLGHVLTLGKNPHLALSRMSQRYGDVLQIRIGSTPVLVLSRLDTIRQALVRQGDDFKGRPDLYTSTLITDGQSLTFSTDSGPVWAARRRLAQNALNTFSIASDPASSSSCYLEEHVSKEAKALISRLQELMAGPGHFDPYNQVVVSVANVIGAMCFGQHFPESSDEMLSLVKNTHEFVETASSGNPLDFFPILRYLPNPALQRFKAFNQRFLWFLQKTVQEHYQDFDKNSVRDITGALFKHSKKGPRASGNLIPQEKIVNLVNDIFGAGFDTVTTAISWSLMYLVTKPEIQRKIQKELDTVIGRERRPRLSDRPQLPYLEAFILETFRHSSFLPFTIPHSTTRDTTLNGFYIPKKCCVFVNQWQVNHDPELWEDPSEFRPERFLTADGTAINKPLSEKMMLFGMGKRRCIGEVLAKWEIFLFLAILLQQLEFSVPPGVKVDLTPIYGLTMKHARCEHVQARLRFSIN

Cytochrome P450 3A4 [12] = target: T3, Cytochrome P450 3A4 (Homo sapiens, UniProt P08684); experiment: Inhibition of CYP3A4 (unknown origin) using testostrone as substrate preincubated for 10 mins followed by NADPH addition by LC/MS/MS analysis; format: ADME
Cytochrome P450 3A4 [13] = target: T3, Cytochrome P450 3A4; experiment: Inhibition of CYP3A4 (unknown origin) using midazolam as substrate preincubated for 10 mins followed by NADPH addition by LC/MS/MS analysis; format: ADME

T3 sequence (P08684 whole entry): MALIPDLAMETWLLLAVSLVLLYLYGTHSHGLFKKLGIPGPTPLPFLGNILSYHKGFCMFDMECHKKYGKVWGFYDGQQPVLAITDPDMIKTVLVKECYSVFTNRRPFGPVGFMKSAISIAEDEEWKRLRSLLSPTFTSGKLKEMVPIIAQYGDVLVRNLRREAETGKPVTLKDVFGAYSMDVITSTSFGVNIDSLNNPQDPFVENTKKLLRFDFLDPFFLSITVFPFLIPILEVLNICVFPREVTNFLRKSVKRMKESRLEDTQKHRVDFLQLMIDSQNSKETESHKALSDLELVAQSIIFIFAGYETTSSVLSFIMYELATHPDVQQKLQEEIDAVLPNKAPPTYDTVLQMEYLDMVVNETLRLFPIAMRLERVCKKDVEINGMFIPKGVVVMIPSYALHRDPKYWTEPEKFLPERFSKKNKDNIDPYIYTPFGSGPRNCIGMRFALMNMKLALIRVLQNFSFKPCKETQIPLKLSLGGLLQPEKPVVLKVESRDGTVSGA
Sequence of Cytochrome P450 2C19 (P33261 whole entry): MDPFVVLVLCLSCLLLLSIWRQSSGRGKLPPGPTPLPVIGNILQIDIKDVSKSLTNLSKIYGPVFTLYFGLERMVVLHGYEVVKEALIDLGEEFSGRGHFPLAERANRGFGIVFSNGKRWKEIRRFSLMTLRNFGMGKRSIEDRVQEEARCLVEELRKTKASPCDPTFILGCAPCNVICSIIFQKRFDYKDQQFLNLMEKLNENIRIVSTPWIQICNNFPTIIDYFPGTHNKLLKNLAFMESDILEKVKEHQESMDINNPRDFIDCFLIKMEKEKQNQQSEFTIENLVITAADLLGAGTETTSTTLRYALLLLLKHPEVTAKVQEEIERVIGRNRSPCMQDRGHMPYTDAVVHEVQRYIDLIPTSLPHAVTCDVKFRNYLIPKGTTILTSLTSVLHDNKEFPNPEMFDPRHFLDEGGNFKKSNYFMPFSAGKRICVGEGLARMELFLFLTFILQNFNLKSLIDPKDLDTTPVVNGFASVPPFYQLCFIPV
Sequence of Cytochrome P450 2C9 (P11712 whole entry): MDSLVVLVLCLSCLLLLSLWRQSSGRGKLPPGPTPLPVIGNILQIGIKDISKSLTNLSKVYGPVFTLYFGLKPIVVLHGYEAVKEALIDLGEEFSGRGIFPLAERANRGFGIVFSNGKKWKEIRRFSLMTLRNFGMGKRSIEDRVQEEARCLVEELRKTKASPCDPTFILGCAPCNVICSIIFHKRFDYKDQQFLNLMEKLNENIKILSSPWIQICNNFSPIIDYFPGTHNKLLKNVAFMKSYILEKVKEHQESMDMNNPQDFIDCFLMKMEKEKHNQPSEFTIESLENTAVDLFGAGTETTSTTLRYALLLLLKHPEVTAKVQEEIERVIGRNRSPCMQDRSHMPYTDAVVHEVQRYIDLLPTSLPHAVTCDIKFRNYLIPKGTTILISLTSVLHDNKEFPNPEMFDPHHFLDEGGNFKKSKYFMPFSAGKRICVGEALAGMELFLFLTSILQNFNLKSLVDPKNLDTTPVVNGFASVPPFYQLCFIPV
Sequence of Cytochrome P450 2D6 (P10635 whole entry): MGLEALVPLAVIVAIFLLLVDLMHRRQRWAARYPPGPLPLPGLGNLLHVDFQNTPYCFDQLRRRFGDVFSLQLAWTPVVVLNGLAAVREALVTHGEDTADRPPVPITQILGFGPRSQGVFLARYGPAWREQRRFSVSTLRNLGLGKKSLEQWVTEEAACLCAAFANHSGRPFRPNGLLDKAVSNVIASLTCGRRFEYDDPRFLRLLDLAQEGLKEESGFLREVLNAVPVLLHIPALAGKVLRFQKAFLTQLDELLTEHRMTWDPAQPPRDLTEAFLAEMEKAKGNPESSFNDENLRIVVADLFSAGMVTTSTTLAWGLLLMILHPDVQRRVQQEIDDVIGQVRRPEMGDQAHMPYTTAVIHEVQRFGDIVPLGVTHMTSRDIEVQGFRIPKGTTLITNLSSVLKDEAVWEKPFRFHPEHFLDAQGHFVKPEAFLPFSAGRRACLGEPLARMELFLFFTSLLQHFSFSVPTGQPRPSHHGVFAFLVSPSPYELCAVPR

## Cc1nc2c([N+](=O)[O-])c(Cl)c(Cl)cc2n1Cc1ccc(Cl)nc1
dCTP pyrophosphatase 1
  IC50: 185 nM

## Cc1ccc(Cn2c(C)nc3c([N+](=O)[O-])c(Cl)c(Cl)cc32)cc1
dCTP pyrophosphatase 1
  IC50: 19 nM

## COc1ccc(Cn2cnc3cc(C)c(C)cc32)cc1
dCTP pyrophosphatase 1
  IC50: > 100000 nM

## O=[N+]([O-])c1c(Cl)c(Cl)cc2c1nc(C1CC1)n2Cc1ccc(B(O)O)cc1
[1]
  t1/2: 13 min
Liver microsome
  t1/2: 268 min

## Cc1nc2c([N+](=O)[O-])c(Cl)c(Cl)cc2n1C(=O)c1ccccc1
dCTP pyrophosphatase 1
  IC50: 96 nM

## COc1ccc(Cn2c(C)nc3c([N+](=O)[O-])c(Cl)c(Cl)cc32)cc1
[1]
  t1/2: 8 min
Liver microsome
  t1/2: 30 min

## COc1ccc(Cn2cnc3ccccc32)cc1
dCTP pyrophosphatase 1
  IC50: > 100000 nM

## Cc1nc2c([N+](=O)[O-])c(Cl)c(Cl)cc2n1Cc1ccc(B(O)O)cc1
[1]
  t1/2: 197 min
[2]
  remaining at 4 h: 11%
[3]
  Activity: Non-toxic
[4]
  Activity: Non-toxic
[5]
  Stability: Stable
Liver microsome
  t1/2: 72 min
dCTP pyrophosphatase 1
  IC50: 46 nM
[6]
  Activity: Non-toxic
[7]
  Fu: 0.1%
[8]
  Activity: Non-toxic
[9]
  solubility: 52 µM (≈ 19.8 µg/mL)

## Cc1nc2cc(Cl)c(Cl)cc2n1Cc1ccc(B(O)O)cc1
dCTP pyrophosphatase 1
  IC50: 248 nM

## Cc1nc2c([N+](=O)[O-])c(Cl)c(Cl)cc2n1Cc1ccc(C#N)cc1
dCTP pyrophosphatase 1
  IC50: 165 nM

## COc1ccc(Cn2c(C)nc3cc(Cl)c(Cl)cc32)cc1
dCTP pyrophosphatase 1
  IC50: 12000 nM

## Cc1nc2c([N+](=O)[O-])c(Cl)c(Cl)cc2n1Cc1ccc(C(=O)O)cc1
dCTP pyrophosphatase 1
  IC50: 73 nM

## COc1ccc(Cn2c(C)nc3c([N+](=O)[O-])cccc32)cc1
dCTP pyrophosphatase 1
  IC50: 1450 nM

## Cc1nc2c([N+](=O)[O-])c(Cl)c(Cl)cc2n1Cc1cccc(B(O)O)c1
dCTP pyrophosphatase 1
  IC50: 46 nM

## Cc1nc2c([N+](=O)[O-])c(Cl)c(Cl)cc2n1-c1ccccc1
dCTP pyrophosphatase 1
  IC50: 85 nM

## Cc1nc2c([N+](=O)[O-])c(Cl)c(Cl)cc2n1Cc1ccc(C=O)cc1
dCTP pyrophosphatase 1
  IC50: 133 nM

## Cc1nc2c([N+](=O)[O-])c(F)c(F)cc2n1Cc1ccc(B(O)O)cc1
dCTP pyrophosphatase 1
  IC50: 529 nM

## CC(=O)Oc1ccc(Cn2c(C)nc3c([N+](=O)[O-])c(Cl)c(Cl)cc32)cc1
dCTP pyrophosphatase 1
  IC50: 34 nM

## COc1ccc(Cn2c(C)nc3ccccc32)cc1
dCTP pyrophosphatase 1
  IC50: > 100000 nM

## Cc1nc2c([N+](=O)[O-])c(Cl)c(Cl)cc2n1Cc1ccc(O)cc1
[2]
  remaining at 4 h: 96%
dCTP pyrophosphatase 1
  IC50: 21 nM
[7]
  Fu: 0.7%
[9]
  solubility: 11 µM (≈ 3.87 µg/mL)

## Cc1nc2c([N+](=O)[O-])c(Cl)c(Cl)cc2n1Cc1ccc(B2OC(=O)CN(C)CC(=O)O2)cc1
[1]
  t1/2: 109 min
[2]
  remaining at 4 h: 86%
[10]
  Papp: 8.66 ×10⁻⁶ cm/s
Cytochrome P450 2D6
  IC50: 16800 nM
Cytochrome P450 2C9
  IC50: 1720 nM
Liver microsome
  t1/2: 11 min
[11]
  Ratio: 1.51
Cytochrome P450 2C19
  IC50: 2930 nM
dCTP pyrophosphatase 1
  IC50: 47 nM
Cytochrome P450 1A2
  IC50: 377000 nM
Cytochrome P450 3A4 [12]
  IC50: 21900 nM
Cytochrome P450 3A4 [13]
  IC50: 28100 nM
[7]
  Fu: 0.8%
[9]
  solubility: > 100 µM

## Cc1nc2c([N+](=O)[O-])c(Cl)c(Cl)cc2n1Cc1ccccc1
dCTP pyrophosphatase 1
  IC50: 49 nM

## Cc1cc2c(nc(C)n2C(C)c2ccccc2)c([N+](=O)[O-])c1C (centres undefined)
dCTP pyrophosphatase 1
  IC50: 250 nM

## Cc1n[nH]c(C)c1CCn1c(C)nc2c([N+](=O)[O-])c(Cl)c(Cl)cc21
[1]
  t1/2: 7 min
Liver microsome
  t1/2: 6 min
dCTP pyrophosphatase 1
  IC50: 190 nM

## Cc1nc2c([N+](=O)[O-])c(Cl)c(Cl)cc2n1CCc1ccc(B(O)O)cc1
dCTP pyrophosphatase 1
  IC50: 205 nM

## Cc1nc(Cn2c(C)nc3c([N+](=O)[O-])c(Cl)c(Cl)cc32)cs1
dCTP pyrophosphatase 1
  IC50: 240 nM

## COC(=O)c1ccc(Cn2c(C)nc3c([N+](=O)[O-])c(Cl)c(Cl)cc32)cc1
dCTP pyrophosphatase 1
  IC50: 95 nM

## COc1ccc(Cn2c(C)nc3cc(C)c(C)cc32)cc1
dCTP pyrophosphatase 1
  IC50: 22000 nM

## COc1ccc(Cn2c(C)nc3c([N+](=O)[O-])c(C)c(C)cc32)cc1
dCTP pyrophosphatase 1
  IC50: 57 nM

## Cc1nc2c([N+](=O)[O-])c(Cl)c(Cl)cc2n1Cc1ccc(-n2cccc2)cc1
dCTP pyrophosphatase 1
  IC50: 331 nM

## Cc1nc2c([N+](=O)[O-])c(Cl)c(Cl)cc2n1Cc1ccccc1B(O)O
dCTP pyrophosphatase 1
  IC50: 82 nM

## Cc1nc2c([N+](=O)[O-])c(Cl)c(Cl)cc2n1Cc1ccc(-n2cccn2)cc1
[1]
  t1/2: 22 min
Liver microsome
  t1/2: 38 min
dCTP pyrophosphatase 1
  IC50: 75 nM
